# Test results reported in US12673954B2 (BRISTOL-MYERS SQUIBB COMPANY, priority 2021, dated 2026).
# Where two headings read alike, the source gives them in different places.
# Legend:
# [1] = test system: NF-κB pathway, THP1-Dual™ cells; assay: STING reporter assay in THP1-Dual cells, NF-κB pathway (SEAP, QUANTI-Blue); assay type: cell-based, human; details: THP1-Dual cells, 10% human plasma, 20 hours, SEAP, 100% activation = 100 μM cGAMP, read-out: NFkB (EC50 μM)
# How it was run: (§1)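 THP-1-derived dual-reporter cells treated with serially diluted compounds (final top concentration 100 μM) for 20 h at 37° C. NF-κB read as SEAP via QUANTI-Blue at OD620; IRF read as Lucia luminescence via QUANTI-Luc after 5 min. 100% activation set by 100 μM cGAMP, baseline by DMSO.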
# [2] = test system: IRF pathway, THP1-Dual™ cells; assay: STING reporter assay in THP1-Dual cells, IRF pathway (Lucia luciferase, QUANTI-Luc); assay type: cell-based, human; details: THP1-Dual cells, 10% human plasma, 20 hours, Lucia luciferase, 100% activation = 100 μM cGAMP, read-out: IRF (EC50 μM)
# How it was run: as §1
Compound,"EC50 ([1]; Homo sapiens, THP1-Dual, 20 h)","EC50 ([2]; Homo sapiens, THP1-Dual, 20 h)",EC50 [1],EC50 [2]
"CC(C)OC(=O)c1cc(F)cc2cc(CNC(=O)c3cnn4cccnc34)oc12 [EXAMPLE 232, Isopropyl 5-fluoro-2-((pyrazolo[1,5-a]pyrimidine-3-carboxamido)methyl)benzofuran-7-carboxylate]",0.92 µM,1 µM,,
"C[C@H](NC(=O)c1cnn2cccnc12)c1oc2c(C(=O)O[C@H](C)C(F)(F)F)cc(Cl)cc2c1Cl [EXAMPLE 296, (R)-1,1,1-Trifluoropropan-2-yl 3,5-dichloro-2-((S)-1-(pyrazolo[1,5-a]pyrimidine-3-carboxamido)ethyl)benzofuran-7-carboxylate]",4.6 µM,5.7 µM,,
"O=C(OCC(F)(F)F)c1cc(C(F)(F)F)cc2cc(CNC(=O)c3cnn4cccnc34)oc12 [EXAMPLE 283, 2,2,2-Trifluoroethyl 2-((pyrazolo[1,5-a]pyrimidine-3-carboxamido)methyl)-5-(trifluoromethyl)benzofuran-7-carboxylate]",0.52 µM,0.4 µM,,
"COC(=O)c1cccc2c(Cl)c(CN3CCc4ccncc4C3=O)oc12 [EXAMPLE 21, Methyl 3-chloro-2-((1-oxo-3,4-dihydro-2,7-naphthyridin-2(1H)-yl)methyl)benzofuran-7-carboxylate]",3.1 µM,2.9 µM,,
"COC(=O)c1cc(F)cc2cc(CNC(=O)c3cnccn3)oc12 [EXAMPLE 42, Methyl 5-fluoro-2-((pyrazine-2-carboxamido)methyl)benzofuran-7-carboxylate]",3.6 µM,4.1 µM,,
"COC(=O)c1cc(C)cc2c(Cl)c(CNC(=O)c3cnn4cc(C)cnc34)oc12 [EXAMPLE 119, Methyl 3-chloro-5-methyl-2-((6-methylpyrazolo[1,5-a]pyrimidine-3-carboxamido)methyl)benzofuran-7-carboxylate]",2.6 µM,2.6 µM,,
"CC(NC(=O)c1cnn2cccnc12)c1cc2cc(F)cc(C(=O)OC3CC(F)(F)C3)c2o1 (stereo not shown) [EXAMPLE 306, 3,3-Difluorocyclobutyl 5-fluoro-2-(1-(pyrazolo[1,5-a]pyrimidine-3-carboxamido)ethyl)benzofuran-7-carboxylate]",1.3 µM,1.3 µM,,
"Cc1ccc(C(=O)OCC(F)(F)F)c2oc(CNC(=O)c3cnn4cccnc34)cc12 [EXAMPLE 358, 2,2,2-Trifluoroethyl 4-methyl-2-((pyrazolo[1,5-a]pyrimidine-3-carboxamido)methyl)benzofuran-7-carboxylate]",2 µM,2.9 µM,,
"O=C(SCC(F)(F)F)c1cc(F)cc2cc(CNC(=O)c3cnn4cccnc34)oc12 [EXAMPLE 388, S-(2,2,2-Trifluoroethyl) 5-fluoro-2-((pyrazolo[1,5-a]pyrimidine-3-carboxamido)methyl)benzofuran-7-carbothioate]",1.4 µM,1.5 µM,,
"CSC(=O)c1cc(F)cc2cc(CNC(=O)c3cnccn3)oc12 [EXAMPLE 384, S-Methyl 5-fluoro-2-((pyrazine-2-carboxamido)methyl)benzofuran-7-carbothioate]",3 µM,3.2 µM,,
"Cc1cc(C(=O)O)c2oc(CNC(=O)c3cncc4cccnc34)cc2c1 [EXAMPLE 192, 2-((1,6-naphthyridine-8-carboxamido)methyl)-5-methylbenzofuran-7-carboxylic acid]",94 µM,79 µM,,
O=C(OCC(F)(F)F)c1ccc(F)c2cc(Cn3cnc4ccncc4c3=O)oc12 [EXAMPLE 356],18 µM,13 µM,,
"COC(=O)c1cccc2cc(CNC(=O)c3cnn4cc(C)cnc34)oc12 [EXAMPLE 11, Methyl 2-((6-methylpyrazolo[1,5-a]pyrimidine-3-carboxamido)methyl) benzofuran-7-carboxylate]",,,6.7 µM,6.1 µM
"COC(OC(=O)c1cc(Br)cc2cc(CNC(=O)c3cnn4cccnc34)oc12)C(F)(F)F (single isomer, unassigned) [EXAMPLE 340, 2,2,2-Trifluoro-1-methoxyethyl 5-bromo-2-((pyrazolo[1,5-a]pyrimidine-3-carboxamido)methyl)benzofuran-7-carboxylate]",,,0.92 µM,0.91 µM
"O=C(OCC(F)(F)F)c1cc(F)cc2cc(Cn3cnc4ccncc4c3=O)oc12 [EXAMPLE 363, 2,2,2-Trifluoroethyl 5-fluoro-2-((4-oxopyrido[4,3-d]pyrimidin-3(4H)-yl)methyl)benzofuran-7-carboxylate]",3.2 µM,3.5 µM,,
"CC(OC(=O)c1cc(Cl)cc2cc(CN3CCc4ccncc4C3=O)oc12)C(F)(F)F (stereo not shown) [EXAMPLE 337, 1,1,1-Trifluoropropan-2-yl 5-chloro-2-((1-oxo-3,4-dihydro-2,7-naphthyridin-2(1H)-yl)methyl)benzofuran-7-carboxylate]",,,13 µM,9.8 µM

Compound,"EC50 ([1]; Homo sapiens, THP1-Dual, 20 h)","EC50 ([2]; Homo sapiens, THP1-Dual, 20 h)",EC50 [1],EC50 [2]
"Cc1cnc2c(C(=O)NCc3cc4cccc(C(=O)OCC(F)(F)F)c4o3)cnn2c1 [EXAMPLE 220, 2,2,2-Trifluoroethyl 2-((6-methylpyrazolo[1,5-a]pyrimidine-3-carboxamido)methyl)benzofuran-7-carboxylate]",4.8 µM,3.8 µM,,
"Cc1cc(C(=O)O[C@@H](C)C(F)(F)F)c2oc(C(C)NC(=O)c3cnn4cccnc34)cc2c1 (stereo partly drawn) [EXAMPLE 277, (S)-1,1,1-Trifluoropropan-2-yl 5-methyl-2-(1-(pyrazolo[1,5-a]pyrimidine-3-carboxamido)ethyl)benzofuran-7-carboxylate]",16 µM,13 µM,,
"COC(=O)c1cc(O)cc2cc(CN3CCc4ccncc4C3=O)oc12 [EXAMPLE 103, Methyl 5-hydroxy-2-((1-oxo-3,4-dihydro-2,7-naphthyridin-2(1H)-yl)methyl)benzofuran-7-carboxylate]",23 µM,25 µM,,
"CSC(=O)c1cc(F)cc2cc(CN3CCc4ccncc4C3=O)oc12 [EXAMPLE 386, S-Methyl 5-fluoro-2-((1-oxo-3,4-dihydro-2,7-naphthyridin-2(1H)-yl)methyl)benzofuran-7-carbothioate]",3.7 µM,3.4 µM,,
"COC(=O)c1cccc2cc(CNC(=O)c3cncnc3)oc12 [EXAMPLE 15, Methyl 2-((pyrimidine-5-carboxamido)methyl)benzofuran-7-carboxylate]",39 µM,44 µM,,
"COC(=O)c1cccc2cc(CN3CCc4ccncc4C3=O)oc12 [EXAMPLE 5, Methyl 2-((1-oxo-3,4-dihydro-2,7-naphthyridin-2(1H)-yl)methyl)benzofuran-7-carboxylate]",6.3 µM,5.7 µM,,
"C[C@H](NC(=O)c1cnn2cccnc12)c1cc2cc(Cl)cc(C(=O)O[C@H](C)C(F)(F)F)c2o1 [EXAMPLE 268, (R)-1,1,1-Trifluoropropan-2-yl 5-chloro-2-((S)-1-(pyrazolo[1,5-a]pyrimidine-3-carboxamido)ethyl)benzofuran-7-carboxylate]",5.6 µM,6.1 µM,,
"O=C(OCC(F)(F)F)c1cc(Cl)cc2cc(CNC(=O)c3cnc4cccnn34)oc12 [EXAMPLE 369, 2,2,2-Trifluoroethyl 5-chloro-2-((imidazo[1,2-b]pyridazine-3-carboxamido)methyl)benzofuran-7-carboxylate]",1.1 µM,0.91 µM,,
"COC(=O)c1cc(Cl)cc2cc(CNC(=O)c3cc(N)ccn3)oc12 [Example 53, Methyl 2-((4-aminopicolinamido)methyl)-5-chlorobenzofuran-7-carboxylate]",27 µM,22 µM,,
O=C(OC(C(F)(F)F)C(F)(F)F)c1cccc2cc(CN3CCc4ccncc4C3=O)oc12 [EXAMPLE 209],19 µM,18 µM,,
"COC(=O)c1cc(C#N)cc2cc(CNC(=O)c3cnn4cccnc34)oc12 [EXAMPLE 105, Methyl 5-cyano-2-((pyrazolo[1,5-a]pyrimidine-3-carboxamido)methyl)benzofuran-7-carboxylate]",3.4 µM,4.7 µM,,
"COC(=O)c1cc(Cl)cc2cc(CNC(=O)c3cncc4[nH]cnc34)oc12 [Example 68, Methyl 2-((3H-imidazo[4,5-c]pyridine-7-carboxamido)methyl)-5-chlorobenzofuran-7-carboxylate]",2.1 µM,1.7 µM,,
"COC[C@@H](C)OC(=O)c1cc(Cl)cc2cc(CNC(=O)c3cnn4cccnc34)oc12 [EXAMPLE 242, (R)-1-Methoxypropan-2-yl 5-chloro-2-((pyrazolo[1,5-a]pyrimidine-3-carboxamido)methyl)benzofuran-7-carboxylate]",2.1 µM,2.4 µM,,
"COC(=O)c1cccc2cc(CNC(=O)c3cnn4ccc(C)nc34)oc12 [EXAMPLE 10, Methyl 2-((5-methylpyrazolo[1,5-a]pyrimidine-3-carboxamido)methyl) benzofuran-7-carboxylate]",,,7.6 µM,7.5 µM
"CC(OC(=O)c1cc(F)cc2cc(CNC(=O)c3cnc4cccnn34)oc12)C(F)(F)F (single isomer, unassigned) [EXAMPLE 316, 1,1,1-Trifluoropropan-2-yl 5-fluoro-2-((imidazo[1,2-b]pyridazine-3-carboxamido)methyl)benzofuran-7-carboxylate]",,,5.9 µM,4.8 µM
"Cc1cc(C(=O)O)c2oc(C(C)NC(=O)c3cnn4cccnc34)cc2c1 (racemic) [EXAMPLE 161, 5-Methyl-2-(1-(pyrazolo[1,5-a]pyrimidine-3-carboxamido)ethyl)benzofuran-7-carboxylic acid (racemic)]",138 µM,108 µM,,
